# Assays:
# [1] = target: T1, pAbl kinase (Seq. ID no. 1) (Homo sapiens, UniProt P00519); test: pAbl kinase spectrophotometric coupled kinase assay; format: biochemical; settings: for IC50: phosphorylated-Abl kinase, 2 h preincubation, ATP 500 μM, read-out: p-Abl IC50
# T1 construct: His6 with TEV cleavage site ([…] leader) (N); purchased deCode Genetics
# T1 sequence (P00519 with tags, fused parts or gaps): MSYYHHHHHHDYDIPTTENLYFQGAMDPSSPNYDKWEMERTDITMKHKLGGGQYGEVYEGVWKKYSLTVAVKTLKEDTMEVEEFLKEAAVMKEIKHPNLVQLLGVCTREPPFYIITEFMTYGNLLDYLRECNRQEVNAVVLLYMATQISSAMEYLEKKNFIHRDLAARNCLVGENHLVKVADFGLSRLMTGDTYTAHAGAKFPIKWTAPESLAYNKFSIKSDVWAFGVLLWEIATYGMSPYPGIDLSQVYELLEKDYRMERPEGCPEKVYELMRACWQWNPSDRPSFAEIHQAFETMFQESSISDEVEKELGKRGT
# Method: pAbl Kinase Assay Activity of pAbl kinase (Seq. […] Science (2000) 289, 1938-1942). In this assay, the oxidation of NADH (thus the decrease at […]) was continuously monitored spectrophometrically. […] Test compounds were incubated with pAbl (SEQ. […] The absorption at 340 nm was monitored continuously for 2 hours at 30° C. on Polarstar Optima plate reader (BMG). The reaction rate was calculated using the 1.0 to 2.0 h time frame. Percent inhibition was obtained by comparison of reaction rate with that of a control (i.e. with no test compound). IC50 values were calculated from a series of percent inhibition values determined at a range of inhibitor concentrations using software routines as implemented in the GraphPad Prism software package. pAbl was obtained as a phosphorylated form of the enzyme used in the Abl assay (see above).
# [2] = target: T2, Abl(T315I) (Seq. ID no. 2) kinase (Homo sapiens, UniProt P00519, T315I); test: Abl(T315I) kinase spectrophotometric coupled kinase assay; format: biochemical; settings: for IC50: T315I mutant Abl kinase, 2 h preincubation, ATP 500 μM
# T2 construct: His6 with TEV cleavage site ([…] leader) (N); purchased decode Genetics
# T2 sequence (P00519 with tags, fused parts or gaps T315I): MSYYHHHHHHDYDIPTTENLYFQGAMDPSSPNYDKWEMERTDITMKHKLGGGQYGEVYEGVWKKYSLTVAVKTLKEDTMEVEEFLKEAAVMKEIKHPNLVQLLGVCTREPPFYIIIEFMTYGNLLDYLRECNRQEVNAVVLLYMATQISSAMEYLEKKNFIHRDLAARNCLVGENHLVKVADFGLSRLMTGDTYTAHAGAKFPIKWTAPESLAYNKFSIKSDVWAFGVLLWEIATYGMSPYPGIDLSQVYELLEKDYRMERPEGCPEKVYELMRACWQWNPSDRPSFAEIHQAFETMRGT
# Method: (§1) Science (2000) 289, 1938-1942). In this assay, the oxidation of NADH (thus the decrease at A340nm) was continuously monitored spectrophometrically. […] (SEQ. […] The absorption at 340 nm was monitored continuously for 2 hours at 30° C. on Polarstar Optima plate reader (BMG). The reaction rate was calculated using the 1.0 to 2.0 h time frame. Percent inhibition was obtained by comparison of reaction rate with that of a control (i.e. with no test compound). IC50 values were calculated from a series of percent inhibition values determined at a range of inhibitor concentrations using software routines as implemented in the GraphPad Prism software package.
# [3] = target: T3, Abl kinase (Seq. ID no. 1) (Homo sapiens, UniProt P00519); test: Abl kinase (u-Abl) spectrophotometric coupled kinase assay; format: biochemical; settings: for IC50: unphosphorylated-Abl kinase, 2 h preincubation, ATP 500 μM
# T3 construct: His6 with TEV cleavage site ([…] leader) (N); purchased deCode Genetics
# T3 sequence (P00519 with tags, fused parts or gaps): T1 sequence (P00519 with tags, fused parts or gaps)
# Method: as §1, with “Abl kinase (Seq. […] Activity of Abl kinase (Seq. […] Science” for “Science”, “A340 nm)” for “A340nm)”, “Test compounds were incubated with Abl kinase (Seq.” for “(SEQ.”
# [4] = tested on: BaF3 cells transfected with wild type bcr-Abl; test: Cell proliferation assay, BaF3 wt bcr-abl; format: cell-based; settings: Mus musculus, 72 hours, Cell Titer Blue
# Method: (§2) Briefly, cells were grown in RPMI 1640 supplemented with 10% characterized fetal bovine serum (HyClone, Logan, Utah) at 37 degrees Celsius, 5% CO2, 95% humidity. Cells were allowed to expand until reaching 80% saturation at which point they were subcultured or harvested for assay use.
# (§3) A serial dilution of test compound was dispensed into a 96 well black clear bottom plate (Corning, Corning, N.Y.). For each cell line, three thousand cells were added per well in complete growth medium. Plates were incubated for 72 hours at 37 degrees Celsius, 5% CO2, 95% humidity. At the end of the incubation period Cell Titer Blue (Promega, Madison, Wis.) was added to each well and an additional 4.5 hour incubation at 37 degrees Celsius, 5% CO2, 95% humidity was performed. Plates were then read on a BMG Fluostar Optima (BMG, Durham, N.C.) using an excitation of 544 nm and an emission of 612 nm. Data was analyzed using Prism software (Graphpad, San Diego, Calif.) to calculate IC50's.
# [5] = tested on: BaF3 cells transfected with bcr-Abl point mutant T315I; test: Cell proliferation assay, BaF3 T315I bcr-abl; format: cell-based; settings: Mus musculus, 72 hours, Cell Titer Blue
# Method: as §2, §3
# [6] = tested on: BaF3 cells transfected with bcr-Abl point mutant E255K; test: Cell proliferation assay, BaF3 E255K bcr-abl; format: cell-based; settings: Mus musculus, 72 hours, Cell Titer Blue
# Method: as §2, §3
# [7] = tested on: BaF3 cells transfected with bcr-Abl point mutant M351T; test: Cell proliferation assay, BaF3 M351T bcr-abl; format: cell-based; settings: Mus musculus, 72 hours, Cell Titer Blue
# Method: as §2, §3
# [8] = tested on: BaF3 cells transfected with bcr-Abl point mutant Y253F; test: Cell proliferation assay, BaF3 Y253F bcr-abl; format: cell-based; settings: Mus musculus, 72 hours, Cell Titer Blue
# Method: as §2, §3
Compound,IC50 [1],times more potent vs. p-Abl kinase than Compound C ([1]; relative to Compound C),IC50 [2],times more potent vs. T315I mutant Abl kinase than Compound C ([2]; relative to Compound C),times more potent vs. u-Abl kinase than Compound C ([3]; relative to unsubstituted (R16=H) Compound C),IC50 [3],IC50 [4],IC50 [5],IC50 [6],IC50 [7],times more potent vs. p-Abl kinase than Compound A ([1]; relative to unsubstituted (R16=H) Compound A),IC50 [8],times more potent vs. p-Abl kinase than Compound B ([1]; relative to Compound B),times more potent vs. T315I mutant Abl kinase than Compound B ([2]; relative to Compound B),times more potent vs. u-Abl kinase than Compound B ([3]; relative to unsubstituted (R16=H) Compound B)
"CNC(=O)c1cc(Oc2ccc(NC(=O)Nc3cc(C(C)(C)C)nn3-c3ccc4[nH]ncc4c3)c(F)c2)ccn1 [Example 4, 1-(3-tert-butyl-1-(1H-indazol-5-yl)-1H-pyrazol-5-yl)-3-(2-fluoro-4-(2-(methylcarbamoyl)pyridin-4-yloxy)phenyl)urea]",20 nM,18 times,12 nM,13 times,2.2 times,0.7 nM,–,–,–,–,–,–,–,–,–
"CNC(=O)c1cc(Oc2ccc(NC(=O)Nc3cc(C(C)(C)C)nn3-c3ccc4ncccc4c3)cc2C)ccn1 [Example 5, 1-(3-tert-butyl-1-(quinolin-6-yl)-1H-pyrazol-5-yl)-3-(3-methyl-4-(2-(methylcarbamoyl)pyridin-4-yloxy)phenyl)urea]",6 nM,–,250 nM,–,–,0.7 nM,8 nM,25 nM,62 nM,10 nM,4 times,15 nM,–,–,–
"CC(C)c1cc(NC(=O)Nc2ccc(Oc3ccnc(C(N)=O)c3)cc2F)n(-c2ccc3ncccc3c2)n1 [Example 15, 1-(4-(2-carbamoylpyridin-4-yloxy)-2-fluorophenyl)-3-(3-isopropyl-1-(quinolin-6-yl)-1H-pyrazol-5-yl)urea]",35 nM,–,56 nM,–,–,1 nM,11 nM,25 nM,238 nM,13 nM,–,86 nM,> 14 times,18 times,8 times

# Reference: patent US8586565B2, “Kinase inhibitors useful for the treatment of myleoproliferative diseases and other proliferative diseases” (Deciphera Pharmaceuticals, LLC, priority 2006, dated 2013)
